This assay has as its system HCV replicon. Briefly: microbe, parasite or virus in culture. Particulars: read-out: Replicon IC5Os. It is filed as cell-based. (In general: Replicon systems follow genome replication, usually without infectious particles.)
Setting [1] is: Replicon IC50 values are determined by firefly luciferase signal, bicistronic replicon, 2 days.

SMILES strings stand for the structures. Read-outs that look alike come from different tables or passages of the source.

The record followed here is patent US8013006B2.

Consider `COc1ccc2c(C#N)c(-c3cccc(NC(=O)OCc4ccccc4)c3)n(C(C)C)c2c1` [Compound 556], for which the IC50 under setting [1] was over 2000 nM.

`COc1ccc(OC(=O)Nc2cccc(-c3c(C#N)c4ccc(OC)cc4n3C(C)C)c2)cc1` [Compound 557]: under setting [1], the IC50 lay in the range of 500 to 2000 nM.

With `CCn1c(-c2cccc(NC(=O)CCl)c2)c(C#N)c2ccc(C(F)(F)F)cc21` [Compound 558], the IC50 under setting [1] was 500 to 2000 nM.

Consider `CCC(=O)Nc1cccc(-c2c(C#N)c3ccc(C(F)(F)F)cc3n2CC)c1` [Compound 559], for which the IC50 under setting [1] is over 2000 nM.

Turning to `CCn1c(-c2cccc(NC(=O)c3ccccc3)c2)c(C#N)c2ccc(C(F)(F)F)cc21` [Compound 560], the IC50 under setting [1] was over 2000 nM.

Consider `CCn1c(-c2cccc(NC(=O)C3CC3)c2)c(C#N)c2ccc(C(F)(F)F)cc21` [Compound 561], for which the IC50 under setting [1] is over 2000 nM.

For the compound `C=CS(=O)(=O)Nc1cccc(-c2c(C#N)c3ccc(C(F)(F)F)cc3n2CC)c1` [Compound 562], for the setting “Hepatitis C virus, 48 h”, the IC50 is under 500 nM.

On to `CCn1c(-c2ccc(C(=O)NCCNC)cc2)c(C#N)c2ccc(OC)cc21` [Compound 564], for which the IC50 under setting [1] is 500 to 2000 nM.

`CCn1c(-c2ccc(NC(C)=O)cc2)c(C#N)c2ccccc21` [Compound 565]: the IC50 under setting [1] is over 2000 nM.

As for `CCn1c(-c2ccc(NC(=O)COC)cc2)c(C#N)c2ccccc21` [Compound 566], the IC50 under setting [1] is over 2000 nM.

As to `CCn1c(-c2ccc(C(N)=O)cc2)c(C#N)c2cc(OC)ccc21` [Compound 568], the IC50 under setting [1] was over 2000 nM.

For the compound `CCNC(=O)c1ccc(-c2c(C#N)c3cc(OC)ccc3n2CC)cc1` [Compound 569], the IC50 under setting [1] fell in the range of 500 to 2000 nM.

As for `CCn1c(-c2ccc(C(=O)NC3CC3)cc2)c(C#N)c2cc(OC)ccc21` [Compound 571], the IC50 under setting [1] fell in the range of 500 to 2000 nM.

`CCn1c(-c2ccc(C(=O)NCCOC)cc2)c(C#N)c2cc(OC)ccc21` [Compound 572]: under setting [1], the IC50 was 500 to 2000 nM.

For `CCn1c(-c2ccc(C(=O)N3CCCN(C)CC3)cc2)c(C#N)c2cc(OC)ccc21` [Compound 573], the IC50 under setting [1] was over 2000 nM.

Consider `CCN(CC)S(=O)(=O)Nc1cccc(-c2c(C#N)c3ccc(OC)cc3n2CC)c1` [Compound 574], for which the IC50 under setting [1] is over 2000 nM.

With `CCS(=O)(=O)Nc1ccc(-c2cc3cc(OC)ccc3n2C)cc1` [Compound 575], the IC50 under setting [1] fell in the range of 500 to 2000 nM.

Turning to `CCn1c(-c2cccc(NS(=O)(=O)N3CCCC3)c2)c(C#N)c2ccc(OC)cc21` [Compound 576], the IC50 under setting [1] is over 2000 nM.

With `CCS(=O)(=O)Nc1ccc(-c2cc3c(OC)cccc3n2C)cc1` [Compound 577], the IC50 under setting [1] is 500 to 2000 nM.

With `CCn1c(-c2ccc3occc3c2)c(C#N)c2ccc(OC)cc21` [Compound 578], the IC50 under setting [1] is 500 to 2000 nM.

In the case of `CCn1c(-c2cccc(NC(=O)OC)c2)c(C#N)c2ccc(OC(C)C)cc21` [Compound 581], the IC50 (Hepatitis C virus, 48 h) is 500 to 2000 nM.

In the case of `CCOC(=O)Nc1cccc(-c2c(C#N)c3ccc(OC(C)C)cc3n2CC)c1` [Compound 582], where the note is “Hepatitis C virus, 48 h”, the IC50 lay in the range of 500 to 2000 nM.

With `CCn1c(-c2cccc(NC(=O)OCCF)c2)c(C#N)c2ccc(OC(C)C)cc21` [Compound 583], the IC50 under setting [1] was in the range of 500 to 2000 nM.

As to `CCn1c(-c2cccc(NC(=O)OCCCl)c2)c(C#N)c2ccc(OC(C)C)cc21` [Compound 584], under setting [1], the IC50 was over 2000 nM.

Regarding `CCCOC(=O)Nc1cccc(-c2c(C#N)c3ccc(OC(C)C)cc3n2CC)c1` [Compound 585], for the setting “Hepatitis C virus, 48 h”, the IC50 was in the range of 500 to 2000 nM.

For the compound `CCn1c(-c2cccc(NC(=O)OCCCCl)c2)c(C#N)c2ccc(OC(C)C)cc21` [Compound 586], the IC50 under setting [1] lay within 500 to 2000 nM.

As for `CCn1c(-c2cccc(NC(=O)OC(C)C)c2)c(C#N)c2ccc(OC(C)C)cc21` [Compound 587], under setting [1], the IC50 lay within 500 to 2000 nM.

On to `C#CCOC(=O)Nc1cccc(-c2c(C#N)c3ccc(OC(C)C)cc3n2CC)c1` [Compound 588], for which, under setting [1], the IC50 is over 2000 nM.

Turning to `CCn1c(-c2cccc(NC(=O)OCCOC)c2)c(C#N)c2ccc(OC(C)C)cc21` [Compound 589], the IC50 under setting [1] fell in the range of 500 to 2000 nM.

With `CCn1c(-c2cccc(NC(=O)OCC(C)C)c2)c(C#N)c2ccc(OC(C)C)cc21` [Compound 591], the IC50 under setting [1] is over 2000 nM.

As for `CC#CCOC(=O)Nc1cccc(-c2c(C#N)c3ccc(OC(C)C)cc3n2CC)c1` [Compound 592], the IC50 under setting [1] is over 2000 nM.

On to `CCn1c(-c2cccc(NC(=O)OCc3ccccc3)c2)c(C#N)c2ccc(OC(C)C)cc21` [Compound 593], for which, under setting [1], the IC50 is over 2000 nM.

In the case of `CCn1c(-c2cccc(NC(=O)OCCl)c2)c(C#N)c2ccc(OC(C)C)cc21` [Compound 594], the IC50 under setting [1] is over 2000 nM.

As for `CCCCOC(=O)Nc1cccc(-c2c(C#N)c3ccc(OC(C)C)cc3n2CC)c1` [Compound 595], under setting [1], the IC50 is over 2000 nM.

With `C=CCOC(=O)Nc1cccc(-c2c(C#N)c3ccc(OC(C)C)cc3n2CC)c1` [Compound 596], the IC50 under setting [1] lay within 500 to 2000 nM.

Regarding `C=CC(C)OC(=O)Nc1cccc(-c2c(C#N)c3ccc(OC(C)C)cc3n2CC)c1` (stereo not drawn) [Compound 597], under setting [1], the IC50 is over 2000 nM.

Turning to `CCCn1c(-c2cccc(NS(=O)(=O)CC)c2)c(C#N)c2ccc(OC)cc21` [Compound 599], under setting [1], the IC50 is over 2000 nM.

As for `CCCNC(=O)Nc1cccc(-c2c(C#N)c3ccc(OC)cc3n2CCC)c1` [Compound 600], under setting [1], the IC50 was over 2000 nM.

In the case of `CCOC(=O)Nc1cc(-c2c(C#N)c3ccc(OC(C)C)cc3n2CC)ccc1OC` [Compound 603], under setting [1], the IC50 is over 2000 nM.

As to `CCOC(=O)Nc1ccc(F)c(-c2c(C#N)c3ccc(OC(C)C)cc3n2CC)c1` [Compound 604], the IC50 under setting [1] is over 2000 nM.

Take `CCOC(=O)Nc1cccc(-c2c(C#N)c3cc(N4CCOCC4)ccc3n2CC)c1` [Compound 605]: the IC50 under setting [1] was over 2000 nM.

`CCCS(=O)(=O)Nc1ccc(-c2c(C#N)c3cc(N4CCOCC4)ccc3n2CC)cc1` [Compound 608]: the IC50 under setting [1] was in the range of 500 to 2000 nM.

In the case of `CCn1c(-c2ccc(NS(=O)(=O)CC)cc2)c(C#N)c2cc(N3CCOCC3)ccc21` [Compound 609], the IC50 under setting [1] was 500 to 2000 nM.

As for `CCn1c(-c2ccc(NS(=O)(=O)CC(F)(F)F)cc2)c(C#N)c2cc(Cl)ccc21` [Compound 615], the IC50 under setting [1] was over 2000 nM.

`CCNC(=O)Nc1ccc(-c2c(C#N)c3cc(Cl)ccc3n2CC)cc1` [Compound 620]: under setting [1], the IC50 lay in the range of 500 to 2000 nM.

With `CCCn1c(-c2ccc(NC(=O)OCC)cc2)c(C#N)c2ccc(OC)cc21` [Compound 624], the IC50 under setting [1] was in the range of 500 to 2000 nM.

Turning to `CCCOC(=O)Nc1ccc(-c2c(C#N)c3ccc(OC)cc3n2CCC)cc1` [Compound 625], the IC50 under setting [1] was under 500 nM.

As for `CCn1c(-c2cccc(NS(=O)(=O)CCCCl)c2)c(C#N)c2cc(Cl)ccc21` [Compound 629], under setting [1], the IC50 was over 2000 nM.

As for `CC(C)CCn1c(-c2ccc(NS(C)(=O)=O)cc2)c(C#N)c2cc(Cl)ccc21` [Compound 630], the IC50 under setting [1] was 500 to 2000 nM.

In the case of `C=Cn1c(-c2ccc(NS(C)(=O)=O)cc2)c(C#N)c2ccc(OC)cc21` [Compound 632], the IC50 under setting [1] fell in the range of 500 to 2000 nM.

Take `C=Cn1c(-c2ccc(NS(=O)(=O)CCC)cc2)c(C#N)c2ccc(OC)cc21` [Compound 634]: under setting [1], the IC50 is 500 to 2000 nM.

Take `C=Cn1c(-c2ccc(NS(=O)(=O)CCCCl)cc2)c(C#N)c2ccc(OC)cc21` [Compound 636]: the IC50 under setting [1] is under 500 nM.

On to `CCn1c(-c2ccc(NC(=O)OCCCl)cc2)c(C#N)c2ccc(OC)cc21` [Compound 637], for which the IC50 (Hepatitis C virus, 48 h) is under 500 nM.

For `CCCn1c(-c2cccc(NS(=O)(=O)CCC)c2)c(C#N)c2ccc(OC)cc21` [Compound 639], under setting [1], the IC50 was over 2000 nM.

On to `CCCn1c(-c2ccc(NC(=O)OCCF)cc2)c(C#N)c2ccc(OC)cc21` [Compound 640], for which, under setting [1], the IC50 is 500 to 2000 nM.

In the case of `CCCn1c(-c2ccc(N(C)S(=O)(=O)CC)cc2)c(C#N)c2ccc(OC)cc21` [Compound 643], under setting [1], the IC50 lay in the range of 500 to 2000 nM.

Regarding `CCC(=O)Nc1ccc(-c2c(C#N)c3cc(OC)ccc3n2CC)cc1` [Compound 644], under setting [1], the IC50 is over 2000 nM.

In the case of `CCn1c(-c2ccc(NC(=O)c3ccc4c(c3)OCO4)cc2)c(C#N)c2ccccc21` [Compound 645], the IC50 under setting [1] is over 2000 nM.

On to `CCn1c(-c2ccc(NC(=O)c3ccco3)cc2)c(C#N)c2ccccc21` [Compound 646], for which the IC50 under setting [1] was 500 to 2000 nM.

Take `CCn1c(-c2ccc(C(=O)Nc3ccc(Cl)cc3)cc2)c(C#N)c2cc(OC)ccc21` [Compound 647]: the IC50 under setting [1] was over 2000 nM.

Consider `CCn1c(-c2ccc(C(=O)Nc3ccc(Cl)c(Cl)c3)cc2)c(C#N)c2cc(OC)ccc21` [Compound 648], for which, under setting [1], the IC50 fell in the range of 500 to 2000 nM.

As for `CCCn1c(-c2ccc(N3CCCS3(=O)=O)cc2)c(C#N)c2ccc(OC)cc21` [Compound 649], the IC50 under setting [1] is 500 to 2000 nM.

With `CCn1c(-c2ccc(NS(=O)(=O)CCN3CCSCC3)cc2)c(C#N)c2ccc(OC)cc21` [Compound 654], the IC50 under setting [1] is over 2000 nM.

`COc1ccc2c(C#N)c(-c3ccc(NS(C)(=O)=O)cc3)n(CC3CCCC3)c2c1` [Compound 655]: the IC50 under setting [1] was over 2000 nM.

Consider `CCn1c(-c2ccc(N)cc2)c(C#N)c2ccc(OC(F)(F)F)cc21` [Compound 656], for which the IC50 under setting [1] is over 2000 nM.

For the compound `CCn1c(-c2ccc(NS(=O)(=O)CC)cc2)c(C#N)c2c(Cl)cccc21` [Compound 657], the IC50 under setting [1] is over 2000 nM.

On to `N#Cc1c(-c2ccc(N3CCCS3(=O)=O)cc2)n(CC2CC2)c2cc(OC(F)F)ccc12` [Compound 659], for which the IC50 under setting [1] was in the range of 500 to 2000 nM.

On to `CCCS(=O)(=O)Nc1ccccc1-c1c(C#N)c2ccc(OC)cc2n1CC` [Compound 662], for which the IC50 (Hepatitis C virus, 48 h) is under 500 nM.

In the case of `CC(C)Oc1ccc2c(C#N)c(-c3ccc(O)c(N)c3)[nH]c2c1` [Compound 663], the IC50 under setting [1] is over 2000 nM.

As to `CCCOC(=O)Nc1ccc(F)c(-c2c(C#N)c3ccc(OC(C)C)cc3n2CC)c1` [Compound 664], under setting [1], the IC50 was over 2000 nM.

For `CCn1c(-c2cc(NC(=O)OCCCl)ccc2F)c(C#N)c2ccc(OC(C)C)cc21` [Compound 665], the IC50 under setting [1] is over 2000 nM.

Take `CCn1c(-c2cccc(CN(C)S(C)(=O)=O)c2)c(C#N)c2ccc(OC)cc21` [Compound 673]: the IC50 under setting [1] was over 2000 nM.

On to `CCS(=O)(=O)Nc1ccc(-c2c(C#N)c3ccc(OC)cc3n2CCOC)cc1` [Compound 674], for which the IC50 under setting [1] is over 2000 nM.

Turning to `CCn1c(-c2ccc3c(c2)CCN3)c(C#N)c2ccc(OC)cc21` [Compound 678], the IC50 under setting [1] was over 2000 nM.

Consider `CCCS(=O)(=O)Nc1ccc(-c2c(C#N)c3ccc(OC(F)F)cc3n2CC2CC2)cc1` [Compound 682], for which, under setting [1], the IC50 lay in the range of 500 to 2000 nM.
